Experimental data as given in patent publication US20260053834A1, “COVALENT MODIFIERS OF AKT1 AND USES THEREOF” (Terremoto Biosciences, Inc., priority 2023, published 2026).

Columns and labels:
[1] = tested on: LAPC4 prostate cancer cells, which express the AKT1 E17K allele; experiment: Antiproliferative effects in LAPC4 cells (CellTiter Glo, 72 h); assay type: cell-based; settings: Homo sapiens, LAPC4, 72 h, read-out: LAPC4 proliferation IC50: GeoMean IC50
Procedure: Antiproliferative effects in LAPC4 cells. LAPC4 prostate cancer cells (Klein, K. A. et al. Nat Med 1997, 3, 402-408), which express the AKT1 E17K allele, were grown in IMDM media (Hyclone) supplemented with 12% FBS+1% P/S. To assess compound effects on growth, 1,000 cells/well were seeded in 384 well assay plates, incubated with compound dilutions dissolved in DMSO. After 72 h, intracellular ATP content was assessed with CellTiter Glo reagent (Promega) according to the manufacturer's instructions. IC50 values were calculated by fitting luminescence values to a log(inhibitor) vs. response Hill equation.

AKT1 E17K = biological target: T1, AKT1 E17K (Homo sapiens, UniProt P31749, E17K); experiment: Live cell target engagement by NanoBRET competitive probe displacement, AKT1 E17K; assay type: binding; settings: transfected HEK293 cells, 2 h at 37° C., read-out: AKT1 E17K IC50: GeoMean IC50
T1 construct: expressed in transfected cells; host or cells: HEK293
T1 sequence (P31749 whole entry E17K): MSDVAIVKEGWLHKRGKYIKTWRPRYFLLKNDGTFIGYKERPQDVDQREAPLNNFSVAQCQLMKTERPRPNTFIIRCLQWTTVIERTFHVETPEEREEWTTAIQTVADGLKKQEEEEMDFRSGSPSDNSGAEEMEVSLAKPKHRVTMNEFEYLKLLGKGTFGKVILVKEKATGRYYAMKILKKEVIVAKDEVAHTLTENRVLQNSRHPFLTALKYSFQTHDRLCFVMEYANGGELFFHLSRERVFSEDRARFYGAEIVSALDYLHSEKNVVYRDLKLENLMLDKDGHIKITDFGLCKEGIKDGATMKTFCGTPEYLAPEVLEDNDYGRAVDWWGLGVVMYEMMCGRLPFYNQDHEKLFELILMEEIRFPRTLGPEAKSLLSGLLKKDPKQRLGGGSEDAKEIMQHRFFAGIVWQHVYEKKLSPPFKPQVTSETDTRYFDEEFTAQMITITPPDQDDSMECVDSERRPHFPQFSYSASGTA
Procedure: (§1) Determining live cell AKT1 E17K, AKT1 WT, and AKT2 target engagement by NanoBRET competitive probe displacement. Live cell target engagement assays were performed as described (Vasta, J. D. et al. Cell Chem Biol 2018, 25(11), 206-214). Briefly, HEK293 cells were transfected with plasmids encoding kinase-NanoLuciferase fusion proteins overnight. Cells were then treated with serial dilutions of compound and an ˜EC50 concentration of fluorescently-tagged ATP-competitive tracer (Promega). After incubation for 2 h at 37° C., luciferase substrate and extracellular luciferase inhibitor were added to all wells, and luminescent intensity at 460 nm and 600 nm were measured on a multimode plate-reader. The ratio of E600/E460 was calculated to give the tracer engagement signal (BRET). IC50 values were calculated by fitting BRET values to a log(inhibitor) vs. response Hill equation.

AKT1 WT = biological target: T2, AKT1 WT (Homo sapiens, UniProt P31749); experiment: Live cell target engagement by NanoBRET competitive probe displacement, AKT1 WT; assay type: binding; settings: transfected HEK293 cells, 2 h at 37° C., read-out: AKT1 WT IC50: GeoMean IC50
T2 construct: expressed in transfected cells; host or cells: HEK293
T2 sequence (P31749 whole entry): as the sequence (P31749 whole entry E17K) above, with K17E counted along it
Procedure: as §1

AKT2 = biological target: T3, AKT2 (Homo sapiens, UniProt P31751); experiment: Live cell target engagement by NanoBRET competitive probe displacement, AKT2; assay type: binding; settings: transfected HEK293 cells, 2 h at 37° C., read-out: AKT2 IC50: GeoMean IC50
T3 construct: expressed in transfected cells; host or cells: HEK293
T3 sequence (P31751 whole entry): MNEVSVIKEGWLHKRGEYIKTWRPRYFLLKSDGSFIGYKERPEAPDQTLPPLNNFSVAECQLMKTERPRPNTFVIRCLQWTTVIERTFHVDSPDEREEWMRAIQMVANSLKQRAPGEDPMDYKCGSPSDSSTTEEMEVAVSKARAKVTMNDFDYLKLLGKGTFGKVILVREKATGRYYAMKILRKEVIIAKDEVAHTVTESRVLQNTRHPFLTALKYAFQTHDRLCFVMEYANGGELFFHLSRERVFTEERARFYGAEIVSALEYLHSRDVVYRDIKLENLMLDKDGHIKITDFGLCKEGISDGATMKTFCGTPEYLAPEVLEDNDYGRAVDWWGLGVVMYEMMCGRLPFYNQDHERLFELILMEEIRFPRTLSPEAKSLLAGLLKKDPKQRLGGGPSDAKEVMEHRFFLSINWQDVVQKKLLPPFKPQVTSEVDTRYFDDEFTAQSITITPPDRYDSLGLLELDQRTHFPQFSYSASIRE
Procedure: as §1

## Cn1cc(-c2ccc3nc(-c4cccnc4N)n(-c4ccc5c(c4)CC[C@@H]5NC(=O)c4ccc(O)c(C=O)c4)c3n2)cn1 [Example 28, (S)—N-(5-(2-(2-aminopyridin-3-yl)-5-(1-methyl-1H-pyrazol-4-yl)-3H-imidazo[4,5-b]pyridin-3-yl)-2,3-dihydro-1H-inden-1-yl)-3-formyl-4-hydroxybenzamide]
[1]
  IC50: 10 to 100 nM
AKT1 E17K
  IC50: 10 to 100 nM
AKT1 WT
  IC50: 10 to 100 nM
AKT2
  IC50: 100 to 2000 nM

## Nc1ncccc1-c1nc2ccc(-c3cnccn3)nc2n1-c1ccc2c(c1)CC[C@@H]2NC(=O)c1ccc(O)c(C=O)c1 [Example 29, N-[(1S)-5-[2-(2-aminopyridin-3-yl)-5-(pyrazin-2-yl)imidazo[4,5-b]pyridin-3-yl]-2,3-dihydro-1H-inden-1-yl]-3-formyl-4-hydroxybenzamide]
[1]
  IC50: 10 to 100 nM
AKT1 E17K
  IC50: < 10 nM
AKT1 WT
  IC50: 10 to 100 nM
AKT2
  IC50: 100 to 2000 nM

## Nc1ncccc1-c1nc2ccc(-c3ccccc3)nc2n1-c1ccc2c(c1)CC[C@@H]2NC(=O)c1ccc(C=O)c(O)c1 [Example 30, N-[(1S)-5-[2-(2-aminopyridin-3-yl)-5-phenylimidazo[4,5-b]pyridin-3-yl]-2,3-dihydro-1H-inden-1-yl]-4-formyl-3-hydroxybenzamide]
[1]
  IC50: ≥ 2000 nM
AKT1 E17K
  IC50: 100 to 2000 nM
AKT1 WT
  IC50: 100 to 2000 nM
AKT2
  IC50: 100 to 2000 nM

## Nc1ncccc1-c1nc2ccc(-c3ccccc3)nc2n1-c1ccc2c(c1)CC[C@@H]2NC(=O)c1ccc(C=O)c(O)c1F [Example 31, N-[(1S)-5-[2-(2-aminopyridin-3-yl)-5-phenylimidazo[4,5-b]pyridin-3-yl]-2,3-dihydro-1H-inden-1-yl]-2-fluoro-4-formyl-3-hydroxybenzamide]
[1]
  IC50: 100 to 2000 nM
AKT1 E17K
  IC50: 10 to 100 nM
AKT1 WT
  IC50: 10 to 100 nM
AKT2
  IC50: 100 to 2000 nM

## Nc1ncccc1-c1nc2ccc(OC3CC3)nc2n1-c1ccc2c(c1)CC[C@@H]2NC(=O)c1ccc(O)c(C=O)c1 [Example 32, N-[(1S)-5-[2-(2-aminopyridin-3-yl)-5-cyclopropoxyimidazo[4,5-b]pyridin-3-yl]-2,3-dihydro-1H-inden-1-yl]-3-formyl-4-hydroxybenzamide]
[1]
  IC50: 100 to 2000 nM
AKT1 E17K
  IC50: 10 to 100 nM
AKT1 WT
  IC50: 100 to 2000 nM
AKT2
  IC50: ≥ 2000 nM

## Nc1ncccc1-c1nc2ccc(-n3cccn3)nc2n1-c1ccc2c(c1)CC[C@@H]2NC(=O)c1ccc(O)c(C=O)c1 [Example 33, (S)—N-(5-(2-(2-aminopyridin-3-yl)-5-(1H-pyrazol-1-yl)-3H-imidazo[4,5-b]pyridin-3-yl)-2,3-dihydro-1H-inden-1-yl)-3-formyl-4-hydroxybenzamide]
[1]
  IC50: 10 to 100 nM
AKT1 E17K
  IC50: 10 to 100 nM
AKT1 WT
  IC50: 10 to 100 nM
AKT2
  IC50: 100 to 2000 nM

## Nc1ncccc1-c1nc2ccc(-c3ccccc3)nc2n1-c1ccc2c(c1)CC[C@@H]2NC(=O)c1cc(C=O)c(O)cc1Cl [Example 34, N-[(1S)-5-[2-(2-aminopyridin-3-yl)-5-phenylimidazo[4,5-b]pyridin-3-yl]-2,3-dihydro-1H-inden-1-yl]-2-chloro-5-formyl-4-hydroxybenzamide]
[1]
  IC50: 100 to 2000 nM
AKT1 E17K
  IC50: 10 to 100 nM
AKT1 WT
  IC50: 10 to 100 nM
AKT2
  IC50: 100 to 2000 nM

## Nc1ncccc1-c1nc2ccc(-c3ccccc3)nc2n1-c1ccc2c(c1)CC[C@@H]2NC(=O)c1cc(C=O)c2[nH]ncc2c1 [Example 35, N-[(1S)-5-[2-(2-aminopyridin-3-yl)-5-phenylimidazo[4,5-b]pyridin-3-yl]-2,3-dihydro-1H-inden-1-yl]-7-formyl-1H-indazole-5-carboxamide]
[1]
  IC50: < 10 nM
AKT1 E17K
  IC50: < 10 nM
AKT1 WT
  IC50: 10 to 100 nM
AKT2
  IC50: 10 to 100 nM

## COc1cc(C(=O)N[C@H]2CCc3cc(-n4c(-c5cccnc5N)nc5ccc(-c6ccccc6)nc54)ccc32)cc(C=O)c1O [Example 36, N-[(1S)-5-[2-(2-aminopyridin-3-yl)-5-phenylimidazo[4,5-b]pyridin-3-yl]-2,3-dihydro-1H-inden-1-yl]-3-formyl-4-hydroxy-5-methoxybenzamide]
[1]
  IC50: 100 to 2000 nM
AKT1 E17K
  IC50: 10 to 100 nM
AKT1 WT
  IC50: 10 to 100 nM
AKT2
  IC50: 100 to 2000 nM

## Nc1ncccc1-c1nc2ccc(Br)nc2n1-c1ccc2c(c1)CC[C@@H]2NC(=O)c1ccc(O)c(C=O)c1 [Example 37, (S)—N-(5-(2-(2-aminopyridin-3-yl)-5-bromo-3H-imidazo[4,5-b]pyridin-3-yl)-2,3-dihydro-1H-inden-1-yl)-3-formyl-4-hydroxybenzamide]
[1]
  IC50: 100 to 2000 nM
AKT1 E17K
  IC50: 10 to 100 nM
AKT1 WT
  IC50: 100 to 2000 nM
AKT2
  IC50: ≥ 2000 nM

## CN1CCN(c2ccc3nc(-c4cccnc4N)n(-c4ccc5c(c4)CC[C@@H]5NC(=O)c4ccc(O)c(C=O)c4)c3n2)CC1 [Example 38, (S)—N-(5-(2-(2-aminopyridin-3-yl)-5-(4-methylpiperazin-1-yl)-3H-imidazo[4,5-b]pyridin-3-yl)-2,3-dihydro-1H-inden-1-yl)-3-formyl-4-hydroxybenzamide]
[1]
  IC50: 100 to 2000 nM
AKT1 E17K
  IC50: 10 to 100 nM
AKT1 WT
  IC50: 100 to 2000 nM
AKT2
  IC50: ≥ 2000 nM

## Nc1ncccc1-c1nc2ccc(-c3ccccc3)nc2n1-c1ccc2c(c1)CC[C@@H]2Nc1nccc2c(C=O)c(O)ccc12 [Example 39, 1-{[(1S)-5-[2-(2-aminopyridin-3-yl)-5-phenylimidazo[4,5-b]pyridin-3-yl]-2,3-dihydro-1H-inden-1-yl]amino}-6-hydroxyisoquinoline-5-carbaldehyde]
[1]
  IC50: 100 to 2000 nM
AKT1 E17K
  IC50: 100 to 2000 nM
AKT1 WT
  IC50: 100 to 2000 nM
AKT2
  IC50: 100 to 2000 nM

## Nc1ncccc1-c1nc2ccc(-c3ccccc3)nc2n1-c1ccc2c(c1)CC[C@@H]2NC(=O)c1cc(C=O)c(O)cn1 [Example 40, N-[(1S)-5-[2-(2-aminopyridin-3-yl)-5-phenylimidazo[4,5-b]pyridin-3-yl]-2,3-dihydro-1H-inden-1-yl]-4-formyl-5-hydroxypyridine-2-carboxamide]
[1]
  IC50: ≥ 2000 nM
AKT1 E17K
  IC50: ≥ 2000 nM
AKT1 WT
  IC50: 100 to 2000 nM
AKT2
  IC50: ≥ 2000 nM

## Cc1cc(C(=O)N[C@H]2CCc3cc(-n4c(-c5cccnc5N)nc5ccc(-c6ccccc6)nc54)ccc32)cc(C=O)c1O [Example 41, N-[(1S)-5-[2-(2-aminopyridin-3-yl)-5-phenylimidazo[4,5-b]pyridin-3-yl]-2,3-dihydro-1H-inden-1-yl]-3-formyl-4-hydroxy-5-methylbenzamide]
[1]
  IC50: 100 to 2000 nM
AKT1 E17K
  IC50: 100 to 2000 nM
AKT1 WT
  IC50: 100 to 2000 nM
AKT2
  IC50: ≥ 2000 nM

## Nc1ncccc1-c1nc2ccc(N3CCOCC3)nc2n1-c1ccc2c(c1)CC[C@@H]2NC(=O)c1ccc(O)c(C=O)c1 [Example 42, N-[(1S)-5-[2-(2-aminopyridin-3-yl)-5-(morpholin-4-yl)imidazo[4,5-b]pyridin-3-yl]-2,3-dihydro-1H-inden-1-yl]-3-formyl-4-hydroxybenzamide]
[1]
  IC50: 100 to 2000 nM
AKT1 E17K
  IC50: 10 to 100 nM
AKT1 WT
  IC50: 100 to 2000 nM
AKT2
  IC50: 100 to 2000 nM

## CCc1ccc2nc(-c3cccnc3N)n(-c3ccc4c(c3)CC[C@@H]4NC(=O)c3ccc(O)c(C=O)c3)c2n1 [Example 43, (S)—N-(5-(2-(2-aminopyridin-3-yl)-5-ethyl-3H-imidazo[4,5-b]pyridin-3-yl)-2,3-dihydro-1H-inden-1-yl)-3-formyl-4-hydroxybenzamide]
[1]
  IC50: 100 to 2000 nM
AKT1 E17K
  IC50: 10 to 100 nM
AKT1 WT
  IC50: 100 to 2000 nM
AKT2
  IC50: ≥ 2000 nM
